Article PMC3117834 (PLoS ONE, 2011)
One block for each compound: values may come before it.

Legend:
Type in all cases: biochemical
Hog1 [1] = target: T1, Hog1 (Saccharomyces cerevisiae, UniProt P32485); test: […] kinase assay, Sic1 phosphorylation, autoradiography
T1 construct: pGEX-4T1 E. coli version also made
T1 sequence (P32485 2-435): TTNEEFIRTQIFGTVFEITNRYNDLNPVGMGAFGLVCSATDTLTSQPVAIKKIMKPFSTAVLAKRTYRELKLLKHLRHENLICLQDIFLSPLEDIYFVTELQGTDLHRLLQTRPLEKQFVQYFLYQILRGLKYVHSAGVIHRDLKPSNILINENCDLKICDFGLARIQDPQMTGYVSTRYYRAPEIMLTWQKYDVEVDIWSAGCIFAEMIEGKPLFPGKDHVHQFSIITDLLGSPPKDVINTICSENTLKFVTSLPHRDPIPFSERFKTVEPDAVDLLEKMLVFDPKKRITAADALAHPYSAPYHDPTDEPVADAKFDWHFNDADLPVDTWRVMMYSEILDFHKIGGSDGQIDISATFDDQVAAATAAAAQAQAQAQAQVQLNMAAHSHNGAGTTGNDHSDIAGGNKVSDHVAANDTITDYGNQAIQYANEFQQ

Hog1 [2] = target: T2, Hog1 (Saccharomyces cerevisiae, UniProt P32485, T100G); test: as above
T2 construct: pGEX-4T1 E. coli version also made

Pbs2 [3] = target: T3, Pbs2 (Saccharomyces cerevisiae, UniProt P08018, M435A); test: […] kinase assay, Hog1 phosphorylation, autoradiography
T3 construct: GST fusion (pGEX-4T1) from E. coli DH5alpha
T3 sequence (P08018 1-668 M435A): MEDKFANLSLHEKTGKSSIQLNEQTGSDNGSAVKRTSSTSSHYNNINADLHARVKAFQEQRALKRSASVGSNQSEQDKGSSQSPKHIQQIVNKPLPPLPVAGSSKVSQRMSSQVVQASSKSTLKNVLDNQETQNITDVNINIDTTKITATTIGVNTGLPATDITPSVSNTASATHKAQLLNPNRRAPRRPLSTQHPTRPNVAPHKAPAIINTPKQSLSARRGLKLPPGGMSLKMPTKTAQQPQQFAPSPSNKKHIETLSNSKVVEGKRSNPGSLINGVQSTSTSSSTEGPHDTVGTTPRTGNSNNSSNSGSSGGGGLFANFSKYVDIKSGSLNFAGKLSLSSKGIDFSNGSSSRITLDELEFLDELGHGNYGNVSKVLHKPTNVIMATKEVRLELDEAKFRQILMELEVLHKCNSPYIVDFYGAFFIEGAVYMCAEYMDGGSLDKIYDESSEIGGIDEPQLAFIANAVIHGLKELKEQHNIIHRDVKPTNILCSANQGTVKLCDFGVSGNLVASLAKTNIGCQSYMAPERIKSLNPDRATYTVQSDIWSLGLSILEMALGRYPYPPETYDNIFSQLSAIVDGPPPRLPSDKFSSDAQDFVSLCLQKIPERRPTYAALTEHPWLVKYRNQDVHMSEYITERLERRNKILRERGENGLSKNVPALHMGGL

Pbs2 [4] = target: T3, Pbs2; test: as above; conditions: [gamma-32P]-phenethyl-ATP as phosphodonor; GST-Hog1 substrate; pH 8.0; 30 °C
Hog1 [5] = target: T2, Hog1; test: […] kinase assay, Sic1 phosphorylation, autoradiography; remark: listed apart in the source
Hog1 [6] = target: T2, Hog1; test: as above; conditions: in vitro-activated Hog1as

T2 sequence (P32485 2-435 T100G): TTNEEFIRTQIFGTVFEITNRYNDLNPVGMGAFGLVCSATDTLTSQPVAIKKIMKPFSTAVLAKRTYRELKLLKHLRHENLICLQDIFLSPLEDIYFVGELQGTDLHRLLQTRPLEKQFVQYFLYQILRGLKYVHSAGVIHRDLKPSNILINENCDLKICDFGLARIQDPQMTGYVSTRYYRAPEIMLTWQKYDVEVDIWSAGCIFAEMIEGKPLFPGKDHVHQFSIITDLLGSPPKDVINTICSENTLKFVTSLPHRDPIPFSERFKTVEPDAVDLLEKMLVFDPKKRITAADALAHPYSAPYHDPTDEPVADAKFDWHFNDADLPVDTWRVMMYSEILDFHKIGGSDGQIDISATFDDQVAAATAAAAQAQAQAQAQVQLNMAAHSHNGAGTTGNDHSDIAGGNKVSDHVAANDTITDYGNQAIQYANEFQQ

inhibition at 5 µM (Hog1 [5]): > 89%
SMILES: CC(C)n1nc(C#Cc2ccc(F)cc2)c2c(N)ncnc21 [6b, 3-((4-fluorophenyl)ethynyl)-1-isopropyl-1H-pyrazolo[3,4-d]pyrimidin-4-amine]
% inhibition at 5 μM (Pbs2 [4]): Pbs2as was inhibited by all the compounds in vitro

inhibition at 5 µM (Hog1 [5]): > 89%
SMILES: CC(C)n1nc(C#Cc2ccc(Cl)cc2)c2c(N)ncnc21 [6c, 3-((4-chlorophenyl)ethynyl)-1-isopropyl-1H-pyrazolo[3,4-d]pyrimidin-4-amine]

IC50 (Hog1 [2]): 9.47 ± 0.38 nM
IC50 (Pbs2 [3]): 7.54 ± 0.25 nM
SMILES: CC(C)(C)n1nc(Cc2cccc3ccccc23)c2c(N)ncnc21 [compound 9, 1-NM-PP1]

Second part, the compound before the results:

SMILES: CC(C)n1nc(-c2ccc(F)cc2)c2c(N)ncnc21 [5b, 3-(4-Fluorophenyl)-1-isopropyl-1H-pyrazolo[3,4-d]pyrimidin-4-amine]
inhibition at 5 µM (Hog1 [1]): 94%

SMILES: CC(C)n1nc(C#Cc2ccccc2)c2c(N)ncnc21 [6a, 1-Isopropyl-3-(phenylethynyl)-1H-pyrazolo[3,4-d]pyrimidin-4-amine]
IC50 (Hog1 [2]): 37 ± 2.72 nM
IC50 (Pbs2 [3]): 4.02 ± 0.26 nM

SMILES: Nc1ncnc2c1c(C#Cc1ccccc1)nn2CCO [7a, 2-(4-amino-3-(phenylethynyl)-1H-pyrazolo[3,4-d]pyrimidin-1-yl)etanol]
32P kinase assay, Sic1 phosphorylation, autoradiography (Hog1 [6]): in vitro these compounds were able to inhibit Hog1as as efficiently as 6a

SMILES: Nc1ncnc2c1c(C#Cc1ccccc1)nn2CC(O)CO (stereo not shown) [7b, 3-(4-amino-3-(phenylethynyl)-1H-pyrazolo[3,4-d]pyrimidin-1-yl)propane-1,2-diol]
32P kinase assay, Sic1 phosphorylation, autoradiography (Hog1 [6]): in vitro these compounds were able to inhibit Hog1as as efficiently as 6a
